# Results reported in ChEMBL document CHEMBL4627384, “l-Thyroxin and the Nonclassical Thyroid Hormone TETRAC Are Potent Activators of PPARγ” (J Med Chem, 2020).
# Active and inactive are the calls of the source. No cut-off for these calls is given here.
# Assays:
# [1] = biological target: T1, Peroxisome proliferator-activated receptor gamma (Homo sapiens) (UniProt P37231); test: Agonist activity at PPARgamma in human HepG2 cells without THRA knockdown assessed as induction of CD36 expression at 30 uM incubated for 8 hrs in by Western blot analysis; assay type: cell-based
# T1 sequence (whole entry): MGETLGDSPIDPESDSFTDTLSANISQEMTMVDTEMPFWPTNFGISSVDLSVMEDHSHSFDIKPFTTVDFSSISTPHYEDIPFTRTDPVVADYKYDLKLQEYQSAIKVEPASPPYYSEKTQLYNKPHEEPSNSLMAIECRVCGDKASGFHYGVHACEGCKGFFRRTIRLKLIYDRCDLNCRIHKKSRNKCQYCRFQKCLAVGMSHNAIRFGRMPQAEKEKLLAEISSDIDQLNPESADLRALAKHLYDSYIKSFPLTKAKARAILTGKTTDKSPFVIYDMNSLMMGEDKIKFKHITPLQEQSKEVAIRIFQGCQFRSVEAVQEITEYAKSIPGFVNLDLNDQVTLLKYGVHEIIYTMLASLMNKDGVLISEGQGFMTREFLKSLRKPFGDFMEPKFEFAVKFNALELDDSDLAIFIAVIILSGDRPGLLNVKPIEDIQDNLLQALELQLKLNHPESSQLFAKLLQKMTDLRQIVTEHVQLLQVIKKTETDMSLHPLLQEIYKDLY
# [2] = biological target: T1, Peroxisome proliferator-activated receptor gamma (Homo sapiens); test: Agonist activity at PPARgamma in human HepG2 cells with THRB knockdown assessed as induction of CD36 expression at 30 uM incubated for 8 hrs in by Western blot analysis; assay type: cell-based
# [3] = Drug metabolism in human HepG2 cells assessed as 2-(4-(4-hydroxy-3,5-diiodophenoxy)-3,5-diiodophenyl)acetic acid formation at 10 uM incubated for 24 hrs by LC-MS analysis; assay type: ADME, cell-based; details: hepg2, 24 h
# [4] = biological target: T2, Thyroid hormone receptor beta (Homo sapiens, UniProt P10828); test: Agonist activity at THRbeta (unknown origin) incubated for 14 to 16 hrs by dual glo luciferase reporter gene assay
# T2 sequence (P10828 whole entry): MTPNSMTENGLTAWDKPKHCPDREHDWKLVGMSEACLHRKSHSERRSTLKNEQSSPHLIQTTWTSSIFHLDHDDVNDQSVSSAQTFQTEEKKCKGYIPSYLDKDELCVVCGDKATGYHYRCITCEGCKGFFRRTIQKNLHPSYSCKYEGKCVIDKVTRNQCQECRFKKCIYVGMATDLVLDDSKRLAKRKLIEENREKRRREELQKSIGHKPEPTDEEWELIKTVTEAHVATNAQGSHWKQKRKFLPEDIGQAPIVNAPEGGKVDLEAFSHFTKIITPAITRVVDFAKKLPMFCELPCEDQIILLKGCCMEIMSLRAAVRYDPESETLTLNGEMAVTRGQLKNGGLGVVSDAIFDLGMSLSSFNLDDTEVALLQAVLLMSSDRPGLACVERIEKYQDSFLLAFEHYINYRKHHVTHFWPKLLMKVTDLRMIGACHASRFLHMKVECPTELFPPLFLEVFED
# [5] = biological target: Luciferin 4-monooxygenase (Photinus pyralis) (UniProt P08659); test: Activation of firefly luciferase expressed in HEK293T cells at 0.1 uM incubated for 14 to 16 hrs by reporter gene assay; assay type: cell-based; details: HEK-293T
# Chain of Luciferin 4-monooxygenase (Photinus pyralis) (P08659 whole entry, the tested form may be a part): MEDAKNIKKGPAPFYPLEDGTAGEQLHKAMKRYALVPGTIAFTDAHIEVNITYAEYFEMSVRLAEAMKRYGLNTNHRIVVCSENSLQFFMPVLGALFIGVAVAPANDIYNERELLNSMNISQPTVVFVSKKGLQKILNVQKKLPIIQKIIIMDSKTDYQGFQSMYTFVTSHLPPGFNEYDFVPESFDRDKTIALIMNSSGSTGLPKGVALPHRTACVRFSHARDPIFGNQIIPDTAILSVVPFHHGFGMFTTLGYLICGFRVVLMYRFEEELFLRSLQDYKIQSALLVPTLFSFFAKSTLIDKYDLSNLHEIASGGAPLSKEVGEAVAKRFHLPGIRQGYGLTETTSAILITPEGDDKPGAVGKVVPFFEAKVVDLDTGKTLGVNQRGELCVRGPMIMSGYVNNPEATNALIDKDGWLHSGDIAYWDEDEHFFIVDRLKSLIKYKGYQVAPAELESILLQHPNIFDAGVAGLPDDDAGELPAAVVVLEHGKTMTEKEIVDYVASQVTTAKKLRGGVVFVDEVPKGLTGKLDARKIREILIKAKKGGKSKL
# [6] = biological target: RXR alpha/PPAR gamma (Homo sapiens) (UniProt P37231+P19793); test: Agonist activity at recombinant human pFA-CMV fused PPARgamma LBD transfected in HEK293T cells/human pFA-CMV fused RXRalpha LBD transfected in HEK293T cells assessed as increase in reporter activation at 0.1 to 3 uM incubated for 14 to 16 hrs using […]:RXRalpha LBD at ratio of 4:1 to 1:1 by dual glo luciferase reporter gene assay relative to rosiglitazone; assay type: cell-based; details: HEK-293T
# [7] = biological target: T1, Peroxisome proliferator-activated receptor gamma (Homo sapiens); test: Agonist activity at recombinant human pFA-CMV fused PPARgamma LBD expressed in HEK293T cells transfected with pFR-luciferase plasmid and pRL-SV40 plasmid at 0.1 uM incubated for 14 to 16 hrs in presence of PPARgamma antagonist GW9662 by dual glo luciferase reporter gene assay; assay type: cell-based; details: HEK-293T
# [8] = biological target: T3, Peroxisome proliferator-activated receptor gamma (Mus musculus) (UniProt P37238); test: Agonist activity at PPARgamma in mouse 3T3L1 assessed as induction of adipocytes differentiation by Oil Red O staining based assay; assay type: cell-based; details: 3T3-L1
# T3 sequence (whole entry): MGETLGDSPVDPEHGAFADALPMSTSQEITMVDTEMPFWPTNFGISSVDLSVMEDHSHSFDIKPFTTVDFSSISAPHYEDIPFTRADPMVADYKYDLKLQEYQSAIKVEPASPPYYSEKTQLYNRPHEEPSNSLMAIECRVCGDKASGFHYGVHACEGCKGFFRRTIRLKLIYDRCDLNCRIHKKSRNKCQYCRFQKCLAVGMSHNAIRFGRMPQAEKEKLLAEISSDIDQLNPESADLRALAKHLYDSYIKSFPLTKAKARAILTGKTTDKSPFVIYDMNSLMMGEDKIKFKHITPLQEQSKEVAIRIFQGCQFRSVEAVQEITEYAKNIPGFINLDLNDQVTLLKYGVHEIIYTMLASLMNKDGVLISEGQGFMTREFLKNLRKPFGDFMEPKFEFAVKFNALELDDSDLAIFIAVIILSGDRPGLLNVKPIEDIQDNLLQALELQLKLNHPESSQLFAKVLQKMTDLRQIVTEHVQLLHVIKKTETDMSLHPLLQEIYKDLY
# [9] = biological target: T4, Thyroid hormone receptor alpha (Homo sapiens, UniProt P10827); test: Agonist activity at THRalpha (unknown origin) incubated for 14 to 16 hrs by dual glo luciferase reporter gene assay
# T4 sequence (P10827 whole entry): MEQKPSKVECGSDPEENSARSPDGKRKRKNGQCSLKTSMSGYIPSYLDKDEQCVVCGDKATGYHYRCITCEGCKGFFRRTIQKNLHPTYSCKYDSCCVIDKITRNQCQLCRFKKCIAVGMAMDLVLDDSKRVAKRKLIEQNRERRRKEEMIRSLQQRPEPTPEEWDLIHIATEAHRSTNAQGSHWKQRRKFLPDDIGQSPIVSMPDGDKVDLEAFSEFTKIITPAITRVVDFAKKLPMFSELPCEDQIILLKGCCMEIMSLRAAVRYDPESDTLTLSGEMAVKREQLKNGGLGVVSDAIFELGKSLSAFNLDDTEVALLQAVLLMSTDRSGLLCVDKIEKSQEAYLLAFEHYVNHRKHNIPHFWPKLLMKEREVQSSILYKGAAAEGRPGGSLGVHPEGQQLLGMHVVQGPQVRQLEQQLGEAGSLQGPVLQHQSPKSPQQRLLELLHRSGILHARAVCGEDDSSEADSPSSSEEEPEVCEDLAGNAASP
# [10] = biological target: T3, Peroxisome proliferator-activated receptor gamma (Mus musculus); test: Agonist activity at PPARgamma in mouse 3T3L1 adipocytes assessed as induction of FABP4 mRNA expression at 1 uM by qRT-PCR analysis; assay type: cell-based; details: 3T3-L1
Activity [1],Activity [2],Drug metabolism [3],EC50 [4],Activity [5],Activity [6],Activity [7],Activity [8],EC50 [9],Activity [10],Structure (SMILES)
Active,Active,44 ng,–,–,–,–,–,–,–,N[C@@H](Cc1cc(I)c(Oc2cc(I)c(O)c(I)c2)c(I)c1)C(=O)O [LEVOTHYROXINE]
–,–,–,20 nM,inactive,Active,inactive,Dose-dependent effect,20 nM,Active,O=C(O)Cc1cc(I)c(Oc2cc(I)c(O)c(I)c2)c(I)c1 [TETRAC]
